Activity calls are given as the source filed them. No cut-off for these calls is given here.
Columns and labels:
[1] = Cytotoxicity against […] cells at 2 ug/disk; assay type: cell-based
[2] = test system: Human alphaherpesvirus 1; assay: Antiviral activity against HSV1 infected in […] cells at 20 ug/disk; assay type: functional, organism-based
[3] = test system: Poliovirus 1; assay: Antiviral activity against Poliovirus type 1 infected in […] cells at 20 ug/disk; assay type: functional, organism-based
[4] = test system: Human alphaherpesvirus 1; assay: Antiviral activity against HSV1 infected in […] cells at 2 ug/disk; assay type: functional, organism-based
[5] = test system: Poliovirus 1; assay: Antiviral activity against Poliovirus type 1 infected in […] cells at 2 ug/disk; assay type: functional, organism-based

Row | SMILES | Activity [1] | Activity [2] | Activity [3] | Activity [4] | Activity [5]
1 | CC1=C(O)/C(=C/[C@@H](C)CCC/C(C)=C/CC/C(C)=C/CCc2ccoc2)OC1=O | Toxic | – | – | – | –
2 | COC1=C(C)C(=O)O/C1=C\[C@@H](C)CCC/C(C)=C/CC/C(C)=C/CCc1ccoc1 | – | inactive | inactive | – | –
3 | COC1=C(C)C(=O)O/C1=C\[C@@H](C)CCC/C(C)=C/C/C=C(\C)CCC(=O)c1ccoc1 | – | – | – | inactive | inactive
4 | COC1=C(C)C(=O)O/C1=C\[C@@H](C)CCC/C(C)=C/CC/C(C)=C/CC(=O)c1ccoc1 | – | – | – | inactive | inactive
5 | C=C(CC/C=C(\C)CCC(=O)c1ccoc1)CCC[C@H](C)/C=C1\OC(=O)C(C)=C1OC | – | – | – | inactive | inactive
6 | COC1=C(C)C(=O)O/C1=C\[C@@H](C)CCC/C(C)=C/CCC(C)(O)CCCc1ccoc1 (stereo partly drawn) | – | inactive | inactive | – | –
7 | CC1=C(O)/C(=C/[C@@H](C)CCC/C(C)=C/CCC(C)(O)CCCc2ccoc2)OC1=O (stereo partly drawn) | – | inactive | inactive | – | –
